Test results taken from patent US20260078120A1, “SUBSTITUTED PYRIDOPYRIMIDINONES” (MIRATI THERAPEUTICS, INC., priority 2022, published 2026).

Legend:
[1] = test system: T47D (PI3Kα H1047R mutant) cells; experiment: CellTiter-Glo 2.0 luminescent cell viability assay, 72 hours, T47D cells; assay type: cell-based; conditions: Homo sapiens, T47D, 72 h, T47D (PI3Kα H1047R mutant) cells, CellTiter-Glo, approximately 72 hours; read-out: T47D (H1047R mutant) Viability IC50
Procedure, shortened: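 Cells seeded at 1000 per well overnight were dosed with a 10-concentration, 1:4 series starting at 10 µM and incubated ~72 h at 37° C. Viability was read by CellTiter-Glo 2.0 luminescence after 30 min at room temperature. IC50 came from four-parameter fits of percent vehicle control.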

[2] = test system: SKBR3 (PI3Kα wild type) cells; experiment: CellTiter-Glo 2.0 luminescent cell viability assay, 72 hours, SKBR3 cells; assay type: cell-based; conditions: Homo sapiens, SK-BR-3, 72 h, SKBR3 (PI3Kα wild type) cells, CellTiter-Glo, approximately 72 hours; read-out: SKBR3 (WT) Viability IC50
Procedure, shortened: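 Viability measured via CTG luminescence following roughly 72 hours of compound exposure at 37° C. Dosing used a 10 um starting concentration diluted 1:4 over 10 points; percent-of-vehicle data fitted with a variable-slope four-parameter model for IC50.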

| Structure (SMILES) | IC50 [1] [µM] | IC50 [2] [µM] |
| --- | --- | --- |
| Cc1cc([C@@H](C)Nc2ccccc2C(=O)O)c2nc(N3CCC(F)(F)C[C@@H]3C)c(C)c(=O)n2c1 [Example 11-92, 2-(((R)-1-(2-((S)-4,4-difluoro-2-methylpiperidin-1-yl)-3,7-dimethyl-4-oxo-4H-pyrido[1,2-a]pyrimidin-9-yl)ethyl)amino)benzoic acid] | 0.213 | > 10 |
| Cc1cc([C@@H](C)Nc2ccccc2C(=O)O)c2nc(N3CCC(F)(F)C[C@H]3C)c(C)c(=O)n2c1 [Example 11-93, 2-(((R)-1-(2-((R)-4,4-difluoro-2-methylpiperidin-1-yl)-3,7-dimethyl-4-oxo-4H-pyrido[1,2-a]pyrimidin-9-yl)ethyl)amino)benzoic acid] | 0.268 | > 10 |
| Cc1cc([C@@H](C)Nc2ccccc2C(=O)O)c2nc(N3CC[C@H]3CF)c(C)c(=O)n2c1 [Example 11-94, 2-(((R)-1-(2-((S)-2-(fluoromethyl)azetidin-1-yl)-3,7-dimethyl-4-oxo-4H-pyrido[1,2-a]pyrimidin-9-yl)ethyl)amino)benzoic acid] | 0.185 | > 10 |
| Cc1cc([C@@H](C)Nc2ccccc2C(=O)O)c2nc(N3CC[C@@H]3CF)c(C)c(=O)n2c1 [Example 11-95, 2-(((R)-1-(2-((R)-2-(fluoromethyl)azetidin-1-yl)-3,7-dimethyl-4-oxo-4H-pyrido[1,2-a]pyrimidin-9-yl)ethyl)amino)benzoic acid] | 0.198 | > 10 |
| Cc1cc([C@@H](C)Nc2ccccc2C(=O)O)c2nc(N3CC(F)(F)[C@H]3C)c(C)c(=O)n2c1 [Example 11-96, 2-(((R)-1-(2-((R)-3,3-difluoro-2-methylazetidin-1-yl)-3,7-dimethyl-4-oxo-4H-pyrido[1,2-a]pyrimidin-9-yl)ethyl)amino)benzoic acid] | 0.159 | > 10 |
| Cc1cc([C@@H](C)Nc2ccccc2C(=O)O)c2nc(N3CC[C@H]3C(F)(F)F)c(C)c(=O)n2c1 [Example 11-97, 2-(((R)-1-(3,7-dimethyl-4-oxo-2-((S)-2-(trifluoromethyl)azetidin-1-yl)-4H-pyrido[1,2-a]pyrimidin-9-yl)ethyl)amino)benzoic acid] | 0.309 | > 10 |
| Cc1cc([C@@H](C)Nc2ccccc2C(=O)O)c2nc(N3CC[C@@H]3C(F)(F)F)c(C)c(=O)n2c1 [Example 11-98, 2-(((R)-1-(3,7-dimethyl-4-oxo-2-((R)-2-(trifluoromethyl)azetidin-1-yl)-4H-pyrido[1,2-a]pyrimidin-9-yl)ethyl)amino)benzoic acid] | 0.473 | > 10 |
| Cc1cc([C@@H](C)Nc2ccccc2C(=O)O)c2nc(NC3CCC3)c(C)c(=O)n2c1 [Example 11-99, (R)-2-((1-(2-(cyclobutylamino)-3,7-dimethyl-4-oxo-4H-pyrido[1,2-a]pyrimidin-9-yl)ethyl)amino)benzoic acid] | 0.651 | > 10 |
| Cc1cc([C@@H](C)Nc2ccccc2C(=O)O)c2nc(N3CC[C@H]3C)c(C)c(=O)n2c1 [Example 11-100, 2-(((R)-1-(3,7-dimethyl-2-((R)-2-methylazetidin-1-yl)-4-oxo-4H-pyrido[1,2-a]pyrimidin-9-yl)ethyl)amino)benzoic acid] | 0.225 | > 10 |
| Cc1cc([C@@H](C)Nc2ccccc2C(=O)O)c2nc(N3CC[C@@H]3C)c(C)c(=O)n2c1 [Example 11-101, 2-(((R)-1-(3,7-dimethyl-2-((S)-2-methylazetidin-1-yl)-4-oxo-4H-pyrido[1,2-a]pyrimidin-9-yl)ethyl)amino)benzoic acid] | 0.18 | > 10 |
| Cc1cc([C@@H](C)Nc2ccccc2C(=O)O)c2nc(N3CC4(C3)CC4(F)F)c(C#N)c(=O)n2c1 [Example 11-102, (R)-2-((1-(3-cyano-2-(1,1-difluoro-5-azaspiro[2.3]hexan-5-yl)-7-methyl-4-oxo-4H-pyrido[1,2-a]pyrimidin-9-yl)ethyl)amino)benzoic acid] | 0.13 | > 10 |
| Cc1cc([C@@H](C)Nc2ccccc2C(=O)O)c2nc(N3CC4(C3)CC4(F)F)c(C)c(=O)n2c1 [Example 11-103, (R)-2-((1-(2-(1,1-difluoro-5-azaspiro[2.3]hexan-5-yl)-3,7-dimethyl-4-oxo-4H-pyrido[1,2-a]pyrimidin-9-yl)ethyl)amino)benzoic acid] | 0.475 | > 10 |
| Cc1cc([C@@H](C)Nc2ccccc2C(=O)O)c2nc(N3CC(C(F)F)C3)c(C#N)c(=O)n2c1 [Example 11-104, (R)-2-((1-(3-cyano-2-(3-(difluoromethyl)azetidin-1-yl)-7-methyl-4-oxo-4H-pyrido[1,2-a]pyrimidin-9-yl)ethyl)amino)benzoic acid] | 0.306 | > 10 |
| Cc1cc([C@@H](C)Nc2ccccc2C(=O)O)c2nc(N3CC(C(F)F)C3)c(C)c(=O)n2c1 [Example 11-105, (R)-2-((1-(2-(3-(difluoromethyl)azetidin-1-yl)-3,7-dimethyl-4-oxo-4H-pyrido[1,2-a]pyrimidin-9-yl)ethyl)amino)benzoic acid] | 0.255 | > 10 |
| Cc1cc([C@@H](C)Nc2ccccc2C(=O)O)c2nc(N3CC(C(F)(F)F)C3)c(C#N)c(=O)n2c1 [Example 11-106, (R)-2-((1-(3-cyano-7-methyl-4-oxo-2-(3-(trifluoromethyl)azetidin-1-yl)-4H-pyrido[1,2-a]pyrimidin-9-yl)ethyl)amino)benzoic acid] | 0.117 | > 10 |
| Cc1cc([C@@H](C)Nc2ccccc2C(=O)O)c2nc(N3CC(C(F)(F)F)C3)c(C)c(=O)n2c1 [Example 11-107, (R)-2-((1-(3,7-dimethyl-4-oxo-2-(3-(trifluoromethyl)azetidin-1-yl)-4H-pyrido[1,2-a]pyrimidin-9-yl)ethyl)amino)benzoic acid] | 0.137 | > 10 |
| C=C(C#N)CNc1nc2c([C@@H](C)Nc3ccccc3C(=O)O)cc(C)cn2c(=O)c1C#N [Example 11-108, (R)-2-((1-(3-cyano-2-((2-cyanoallyl)amino)-7-methyl-4-oxo-4H-pyrido[1,2-a]pyrimidin-9-yl)ethyl)amino)benzoic acid] | 3.69 | > 10 |
| Cc1cc([C@@H](C)Nc2ccccc2C(=O)O)c2nc(N3CC(C#N)C3)c(C#N)c(=O)n2c1 [Example 11-109, (R)-2-((1-(3-cyano-2-(3-cyanoazetidin-1-yl)-7-methyl-4-oxo-4H-pyrido[1,2-a]pyrimidin-9-yl)ethyl)amino)benzoic acid] | 1.33 | > 10 |
| C=C(C#N)CNc1nc2c([C@@H](C)Nc3ccccc3C(=O)O)cc(C)cn2c(=O)c1C [Example 11-110, (R)-2-((1-(2-((2-cyanoallyl)amino)-3,7-dimethyl-4-oxo-4H-pyrido[1,2-a]pyrimidin-9-yl)ethyl)amino)benzoic acid] | 4.88 | > 10 |
| COC1CN(c2nc3c([C@@H](C)Nc4ccccc4C(=O)O)cc(C)cn3c(=O)c2C#N)C1 [Example 11-111, (R)-2-((1-(3-cyano-2-(3-methoxyazetidin-1-yl)-7-methyl-4-oxo-4H-pyrido[1,2-a]pyrimidin-9-yl)ethyl)amino)benzoic acid] | 0.285 | > 10 |
| COC1CN(c2nc3c([C@@H](C)Nc4ccccc4C(=O)O)cc(C)cn3c(=O)c2C)C1 [Example 11-112, (R)-2-((1-(2-(3-methoxyazetidin-1-yl)-3,7-dimethyl-4-oxo-4H-pyrido[1,2-a]pyrimidin-9-yl)ethyl)amino)benzoic acid] | 0.184 | > 10 |
| Cc1cc([C@@H](C)Nc2ccccc2C(=O)O)c2nc(N3CC(F)C3)c(C#N)c(=O)n2c1 [Example 11-113, (R)-2-((1-(3-cyano-2-(3-fluoroazetidin-1-yl)-7-methyl-4-oxo-4H-pyrido[1,2-a]pyrimidin-9-yl)ethyl)amino)benzoic acid] | 0.249 | > 10 |
| Cc1cc([C@@H](C)Nc2ccccc2C(=O)O)c2nc(N3CC(F)C3)c(C)c(=O)n2c1 [Example 11-114, (R)-2-((1-(2-(3-fluoroazetidin-1-yl)-3,7-dimethyl-4-oxo-4H-pyrido[1,2-a]pyrimidin-9-yl)ethyl)amino)benzoic acid] | 0.257 | > 10 |
| Cc1cc([C@@H](C)Nc2ccccc2C(=O)O)c2nc(N3CC(F)(F)C3)c(C)c(=O)n2c1 [Example 11-115, (R)-2-((1-(2-(3,3-difluoroazetidin-1-yl)-3,7-dimethyl-4-oxo-4H-pyrido[1,2-a]pyrimidin-9-yl)ethyl)amino)benzoic acid] | 0.379 | > 10 |
| CO[C@H]1CN(c2nc3c([C@@H](C)Nc4ccccc4C(=O)O)cc(C)cn3c(=O)c2C#N)CC1(F)F [Example 11-116, 2-(((R)-1-(3-cyano-2-((S)-3,3-difluoro-4-methoxypyrrolidin-1-yl)-7-methyl-4-oxo-4H-pyrido[1,2-a]pyrimidin-9-yl)ethyl)amino)benzoic acid] | 0.156 | > 10 |
| CO[C@@H]1CN(c2nc3c([C@@H](C)Nc4ccccc4C(=O)O)cc(C)cn3c(=O)c2C)CC1(F)F [Example 11-117, 2-(((R)-1-(2-((R)-3,3-difluoro-4-methoxypyrrolidin-1-yl)-3,7-dimethyl-4-oxo-4H-pyrido[1,2-a]pyrimidin-9-yl)ethyl)amino)benzoic acid] | 0.35 | > 10 |
| CO[C@H]1CN(c2nc3c([C@@H](C)Nc4ccccc4C(=O)O)cc(C)cn3c(=O)c2C)CC1(F)F [Example 11-118, 2-(((R)-1-(2-((S)-3,3-difluoro-4-methoxypyrrolidin-1-yl)-3,7-dimethyl-4-oxo-4H-pyrido[1,2-a]pyrimidin-9-yl)ethyl)amino)benzoic acid] | 0.233 | > 10 |
